{
  "source": "patent EP3977982A1",
  "about": "(Acerus Biopharma Inc., priority 2011, dated 2012)",
  "key": {"[1]": {"conditions": "formulated in ethanol/propylene glycol/water; cited from earlier work"}, "[2]": {"conditions": "nasal, dissolved in polyethylene glycol (200 mg/ml); cited from earlier work"}, "[3]": {"conditions": "cited from earlier work"}, "[4]": {"conditions": "nasal, cited from earlier work"}, "[5]": {"experiment": "pKa assessment of testosterone", "conditions": "inferred from molecular structure, no protonatable groups"}, "[6]": {"biological_target": "T1, sex hormone binding globulin (SHBG) (Homo sapiens, UniProt P04278)", "T1 sequence (P04278 30-402)": "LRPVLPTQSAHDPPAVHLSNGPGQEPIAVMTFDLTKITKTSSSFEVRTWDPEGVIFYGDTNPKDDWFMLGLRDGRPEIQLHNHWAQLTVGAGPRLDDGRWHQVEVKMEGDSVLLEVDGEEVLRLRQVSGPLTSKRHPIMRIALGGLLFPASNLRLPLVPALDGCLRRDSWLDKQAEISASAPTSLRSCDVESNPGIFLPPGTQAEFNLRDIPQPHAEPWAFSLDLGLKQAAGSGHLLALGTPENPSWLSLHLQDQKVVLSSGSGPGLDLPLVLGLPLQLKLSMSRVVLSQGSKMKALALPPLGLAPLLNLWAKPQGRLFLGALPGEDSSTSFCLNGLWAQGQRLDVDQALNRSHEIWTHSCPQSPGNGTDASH", "conditions": "cited from earlier work"}, "[7]": {"experiment": "Solubility of testosterone in water, solvents, oils and vehicles"}, "[8]": {"conditions": "drug substance; cited from earlier work"}},
  "note": "Like-named read-outs stand apart in the source and are kept apart here.",
  "data": [
    {"smiles": "CC(=O)[C@H]1CC[C@H]2[C@@H]3CCC4=CC(=O)CC[C@]4(C)[C@H]3CC[C@]12C", "note": "[progesterone]", "values": [
      {"measurement": "Tmax", "setting": "[1]", "result": 5.5, "unit": "min"},
      {"measurement": "Tmax", "setting": "[2]", "result": 30, "unit": "min"},
      {"measurement": "duration of serum level", "setting": "[2]", "result": "at least 8 hours"},
      {"measurement": "serum level decrease", "setting": "[3]; nasal powder mixtures progesterone/cyclodextrin", "result": "≤ 20", "unit": "min"},
      {"measurement": "Tmax", "setting": "[3]; nasal powder mixtures, co-ground and co-lyophilized progesterone/cyclodextrin", "result": "2 to 5", "unit": "min"}
    ]},
    {"smiles": "CN(C)CC(=O)O[C@H]1CC[C@H]2[C@@H]3CCC4=CC(=O)CC[C@]4(C)[C@H]3CC[C@]12C", "note": "[testosterone 17β-N,N-dimethylglycinate]", "values": [
      {"measurement": "time to peak plasma concentrations", "setting": "[4]; 25 mg dose", "result": "≤ 12", "unit": "min"},
      {"measurement": "time to peak plasma concentrations", "setting": "[4]; 50 mg dose", "result": "≤ 20", "unit": "min"},
      {"measurement": "elimination half-lives", "setting": "[4]", "result": "about 55 min"}
    ]},
    {"smiles": "C[C@]12CC[C@H]3[C@@H](CCC4=CC(=O)CC[C@@]43C)[C@@H]1CC[C@@H]2O", "note": "[testosterone, Testosterone]", "values": [
      {"measurement": "pKa", "setting": "[5]", "result": "no pKa value in the range 1-14"},
      {"measurement": "testosterone remaining unbound (free)", "setting": "[6]; in men", "result": "about 2%"},
      {"measurement": "testosterone remaining unbound (free)", "setting": "[6]; in women", "result": "up to 3%"},
      {"measurement": "testosterone levels in the gel", "setting": "[7]; DMI used in conjunction with the other excipients", "result": "≥ 8.0", "unit": "%"},
      {"measurement": "testosterone dissolved by solvent alone", "setting": "[7]; Diethyleneglycol ethyl ether alone", "result": "more than 10%"},
      {"measurement": "testosterone dissolved by solvent", "setting": "[7]; Dimethyl isosorbide (DMI)", "result": "more than 12%"},
      {"measurement": "solubility", "setting": "[7]; acetone and isopropanol", "result": "soluble"},
      {"measurement": "amount an aqueous solution can contain", "setting": "[7]; aqueous solution", "result": 0.002, "unit": "mg per 100 µL"},
      {"measurement": "solubility of testosterone in oils", "setting": "[7]; castor oil", "result": "up to 4%"},
      {"measurement": "amount a castor oil solution can contain", "setting": "[7]; castor oil solution", "result": "up to 4.5 mg per 100 µL"},
      {"measurement": "solubility of testosterone in oils", "setting": "[7]; corn oil", "result": 0.5, "unit": "%"},
      {"measurement": "solubility of testosterone in oils", "setting": "[7]; cottonseed oil", "result": 0.7, "unit": "%"},
      {"measurement": "solubility of testosterone in oils", "setting": "[7]; isopropylmyristate", "result": 0.8, "unit": "%"},
      {"measurement": "solubility", "setting": "[7]; methanol and ethanol", "result": "freely soluble"},
      {"measurement": "solubility", "setting": "[7]; n-heptane", "result": "insoluble"},
      {"measurement": "Testosterone solubility in the oil based gel", "setting": "[7]; oil based TBS-1A gel (so in the source)", "result": "about 4.5%"},
      {"measurement": "solubility of testosterone in oils", "setting": "[7]; peanut oil", "result": 0.5, "unit": "%"},
      {"measurement": "solubility of testosterone in oils", "setting": "[7]; soybean oil", "result": 0.6, "unit": "%"},
      {"measurement": "retest period", "setting": "[8]", "result": 5, "unit": "years"}
    ]}
  ]
}
